Results reported in patent US5047406A, “Substituted cyclohexanols as central nervous system agents” (Warner-Lambert Co., priority 1990, dated 1991).
Where two headings read alike, the source gives them in different places.

Key:
[1] = test system: Locomotor Activity in Mice; experiment: Inhibition of locomotor activity in mice; type: in vivo; details: for Inhibition of Locomotor Activity in Mice ED50: IP; for ED50: Mus musculus, ip
Excerpt: (§1) The above test methods are incorporated herein by reference.

[2] = test system: Brain Striatal Dopamine Synthesis; experiment: Effects on brain striatal dopamine synthesis in rats; type: in vivo; details: for inhibition in vivo at 10 mg/kg: Rattus norvegicus
Excerpt: as §1

[3] = target: T1, [^3 H]-Spiroperidol Binding (Homo sapiens, UniProt P14416); experiment: Inhibition of [^3 H]-spiroperidol binding in a receptor assay
T1 construct: receptor assay described by D. Grigoriadis and P. Seeman, Journal of Neurochemistry, Volume 44, pages 1925-1935 (1985); from tissue
Excerpt: as §1

[4] = read-out: Inhibition of [^3 H]-Spiroperidol Binding IC50
[5] = Inhibition of [^3 H]-Spiroperidol Binding IC50

T1 sequence (P14416 whole entry): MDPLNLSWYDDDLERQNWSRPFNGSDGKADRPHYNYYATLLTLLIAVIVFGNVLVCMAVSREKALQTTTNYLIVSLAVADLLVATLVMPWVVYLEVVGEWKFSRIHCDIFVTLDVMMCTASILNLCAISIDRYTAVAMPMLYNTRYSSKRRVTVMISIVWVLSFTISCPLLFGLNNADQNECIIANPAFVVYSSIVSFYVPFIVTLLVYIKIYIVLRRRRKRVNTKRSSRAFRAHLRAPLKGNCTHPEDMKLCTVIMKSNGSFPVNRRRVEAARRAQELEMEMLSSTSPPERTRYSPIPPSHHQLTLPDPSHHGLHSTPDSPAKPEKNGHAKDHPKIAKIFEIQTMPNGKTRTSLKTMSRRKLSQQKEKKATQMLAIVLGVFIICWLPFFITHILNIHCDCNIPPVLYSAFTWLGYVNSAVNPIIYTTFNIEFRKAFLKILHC

| IC50 [3, 4] [nM] | SMILES | Inhibition of Locomotor Activity in Mice ED50 [1] [mg/kg] | ED50 [1] [mg/kg] | further results |
| --- | --- | --- | --- | --- |
| 169 | COc1ccc(C2(O)CCC(CCN3CCN(c4ccccn4)CC3)CC2)cc1 (stereo not drawn) [Example 8, cis-1-(4-Methoxyphenyl)-4-[2-[4-(2-pyridinyl)-1-piperazinyl]ethyl]cyclohexanol] | 0.9 |  | Effects on Brain Striatal Dopamine Synthesis in Rats, % inhibition ([2]; 10 mg/kg, IP): 88% |
|  | O=C(N[C@H]1CC[C@H](CN2CCN(c3ccccn3)CC2)CC1)c1ccccc1 [Example 60, trans N-[4-[[4-(2-Pyridinyl)-1-piperazinyl]methyl]cyclohexyl]benzamide] |  | 1 | inhibition in vivo at 10 mg/kg ([2]; ip): 36% |
| 620 | O=C(N[C@H]1CC[C@H](CCN2CCN(c3ccccn3)CC2)CC1)c1ccc(Cl)cc1 [Example 57, trans 4-Chloro-N-[4-[2-[4-(2-pyridinyl)-1-piperazinyl]ethyl]cyclohexyl]benzamide] |  | 0.51 |  |
| 7790 | O=C(N[C@H]1CC[C@H](N2CCN(c3ccccn3)CC2)CC1)c1ccc(Cl)cc1 [Example 43, trans 4-Chloro-N-[4-[4-(2-pyridinyl)-1-piperazinyl]cyclohexyl]benzamide] |  | 0.78 |  |
|  | OC1(c2cccs2)CCC(CCN2CC=C(c3ccccc3)CC2)CC1 (stereo not drawn) [Example 13, cis-4-[2-(3,6-Dihydro-4-phenyl-1(2H)-pyridinyl)ethyl]-1-(2-thienyl)cyclohexanol] |  | 2 | IC50 [3, 5]: 51 nM |
|  | CC(=O)N[C@H]1CC[C@H](CCN2CCN(c3ccccn3)CC2)CC1 [Example 58, trans N-[4-[2-[4-(2-Pyridinyl)-1-piperazinyl]ethyl]cyclohexyl]acetamide] |  | 0.03 | inhibition in vivo at 10 mg/kg ([2]; ip): 87% |
| 816 | OC1(c2ccc(Cl)cc2)CCC(N2CCN(c3ccccn3)CC2)CC1 (stereo not drawn) [Example 1a, cis-1-(4-Chlorophenyl)-4-[4-(2-pyridinyl)-1-piperazinyl]cyclohexanol] | 0.86 |  |  |
| 2520 | O=C(N[C@H]1CC[C@H](N2CCN(c3ccccn3)CC2)CC1)c1cccs1 [Example 44, trans N-[4-[4-(2-Pyridinyl)-1-piperazinyl]cyclohexyl]-2-thiophenecarboxamide] |  | 0.29 |  |
|  | OC1(c2cccs2)CCC(N2CCN(c3ccccn3)CC2)CC1 (centres unmarked) [Example 24, 4-[4-(2-Pyridinyl)-1-piperazinyl]-1-(2-thienyl)cyclohexanol] |  | > 30 |  |
| 530 | COc1ccccc1C(=O)N[C@H]1CC[C@H](N2CCN(c3ccccn3)CC2)CC1 [Example 41, trans N-[4-[4-(2-Pyridinyl)-1-piperazinyl]cyclohexyl]-2-methoxybenzamide] |  | 1.9 |  |
| 2800 | O=C(N[C@H]1CC[C@H](N2CCN(c3ccccn3)CC2)CC1)c1ccccc1 [Example 40, trans N-[4-[4-(2-Pyridinyl)-1-piperazinyl]cyclohexyl]benzamide] |  | 0.36 | inhibition in vivo at 10 mg/kg ([2]; ip): 65% |
| 12500 | OC1(c2cccnc2)CCC(N2CCN(c3ccccn3)CC2)CC1 (stereo not drawn) [Example 22, trans-1-(3-Pyridinyl)-4-[4-(2-pyridinyl)-1-piperazinyl]cyclohexanol] | 30 |  |  |
| 2700 | OC1(c2ccsc2)CCC(N2CCN(c3ccccn3)CC2)CC1 (centres unmarked) [Example 25, 4-[4-(2-Pyridinyl)-1-piperazinyl]-1-(3-thienyl)cyclohexanol] |  | 2.4 |  |
|  | O=C(N[C@H]1CC[C@H](N2CC=C(c3ccccc3)CC2)CC1)c1ccsc1 [Example 48, trans N-[4-(3,6-Dihydro-4-phenyl-1(2H)-pyridinyl)cyclohexyl]-3-thiophenecarboxamide] |  | 0.27 | inhibition in vivo at 10 mg/kg ([2]; IP): 88%; IC50 [3, 5]: 90 nM |
|  | OC1(c2ccccn2)CCC(N2CCN(c3ncccn3)CC2)CC1 (stereo not drawn) [Example 19, cis-1-(2-Pyridinyl)-4-[4-(2-pyrimidinyl)-1-piperazinyl]cyclohexanol] | 13.0 |  |  |
|  | OC1(c2ccccn2)CCC(N2CCN(c3ccccn3)CC2)CC1 (stereo not drawn) [Example 20, trans-1-(2-Pyridinyl)-4-[4-(2-pyridinyl)-1-piperazinyl]cyclohexanol] | > 30 |  |  |
|  | OC1(c2ccccn2)CCC(N2CCN(c3ncccn3)CC2)CC1 (stereo not drawn) [Example 18, trans-1-(2-Pyridinyl)-4-[4-(2-pyrimidinyl)-1-piperazinyl]cyclohexanol] | > 30 |  |  |

| IC50 [3, 4] [nM] | SMILES | Inhibition of Locomotor Activity in Mice ED50 [1] [mg/kg] | ED50 [1] [mg/kg] | further results |
| --- | --- | --- | --- | --- |
| 2780 | OC1(c2ccccn2)CCC(N2CCN(c3ccccn3)CC2)CC1 (stereo not drawn) [Example 21, cis-1-(2-Pyridinyl)-4-[4-(2-pyridinyl)-1-piperazinyl]cyclohexanol] | 2.3 |  |  |
|  | O=C(N[C@H]1CC[C@H](CCN2CCN(c3ccccn3)CC2)CC1)c1ccc(Cl)c(Cl)c1 [Example 59, trans 3,4-Dichloro-N-[4-[2-[4-(2-pyridinyl)-1-piperazinyl]ethyl]cyclohexyl]benzamide] |  | 14.4 | inhibition in vivo at 10 mg/kg ([2]; ip): 7% |
| 1620 | O=C(N[C@H]1CC[C@@H](CCN2CCN(c3ccccn3)CC2)CC1)c1ccc(Cl)cc1 [Example 56, cis 4-Chloro-N-[4-[2-[4-(2-pyridinyl)-1-piperazinyl]ethyl]cyclohexyl]benzamide] |  | 6.3 |  |
| 1050 | OC1(c2ccccn2)CCC(CCN2CCN(c3ccccn3)CC2)CC1 (centres unmarked) [Example 6, 1-(2-Pyridinyl)-4-[2-[4-(2-pyridinyl)-1-piperazinyl]ethyl]cyclohexanol] |  | 0.34 |  |
| 333 | OC1(c2ccc(Cl)cc2)CCC(N2CCN(c3ccccn3)CC2)CC1 (stereo not drawn) [Example 1, trans-1-(4-Chlorophenyl)-4-[4-(2-pyridinyl)-1-piperazinyl]cyclohexanol] | 2.3 |  |  |
| 1550 | OC1(c2nccs2)CCC(CCN2CCN(c3ccccn3)CC2)CC1 (centres unmarked) [Example 9, 4-[2-[4-(2-Pyridinyl)-1-piperazinyl]ethyl]-1-(2-thiazolyl)cyclohexanol] |  | 1 |  |
|  | O=C(N[C@H]1CC[C@@H](CCN2CC=C(c3ccccc3)CC2)CC1)c1ccccc1 [Example 69, cis N-[4-[2-(3,6-Dihydro-4-phenyl-1(2H)-pyridinyl)ethyl]cyclohexyl]benzamide] |  | 2.1 |  |
| 670 | COc1ccc(C2(O)CCC(N3CCN(c4ccccn4)CC3)CC2)cc1 (centres unmarked) [Example 26, 1-(4-Methoxyphenyl)-4-[4-(2-pyridinyl)-1-piperazinyl]cyclohexanol] |  | 0.3 |  |
| 1160 | OC1(c2cccnc2)CCC(N2CCN(c3ccccn3)CC2)CC1 (stereo not drawn) [Example 23, cis-1-(3-Pyridinyl)-4-[4-(2-pyridinyl)-1-piperazinyl]cyclohexanol] | 1.6 |  |  |
| 1660 | OC1(c2ccccc2)CCC(N2CCN(c3ccccn3)CC2)CC1 (centres unmarked) [Example 27, 1-Phenyl-4-[4-(2-pyridinyl)-1-piperazinyl]cyclohexanol] |  | 0.83 |  |
| 830 | Cc1ccc(C(=O)N[C@H]2CC[C@@H](CCN3CCN(c4ccccn4)CC3)CC2)cc1 [Example 55, cis 4-Methyl-N-[4-[2-[4-(2-pyridinyl)-1-piperazinyl]ethyl]cyclohexyl]benzamide] |  |  |  |
|  | OC1(c2cccs2)CCC(CN2CCN(c3ccccn3)CC2)CC1 (stereo not drawn) [Example 16, trans-4-[[4-(2-Pyridinyl)-1-piperazinyl]methyl]-1-(2-thienyl)cyclohexanol] |  | 4.3 |  |
|  | OC1(c2cccnc2)CCC(N2CC=C(c3ccccc3)CC2)CC1 (stereo not drawn) [Example 29, trans-4-(3,6-Dihydro-4-phenyl-1(2H)-pyridinyl)-1-(3-pyridinyl)cyclohexanol] | 25.6 |  |  |
| 3900 | OC1(c2cccs2)CCC(CN2CCN(c3ccccn3)CC2)CC1 (stereo not drawn) [Example 17, cis-4-[[4-(2-Pyridinyl)-1-piperazinyl]methyl]-1-(2-thienyl)cyclohexanol] | 5.2 |  |  |
| 847 | OC1(c2cccnc2)CCC(CCN2CCN(c3ccccn3)CC2)CC1 (centres unmarked) [Example 10, 1-(3-Pyridinyl)-4-[2-[4-(2-pyridinyl)-1-piperazinyl]ethyl]cyclohexanol] |  | 0.37 |  |
|  | OC1(c2ccccn2)CCC(N2CC=C(c3ccccc3)CC2)CC1 (centres unmarked) [Example 28, 4-(3,6-Dihydro-4-phenyl-1(2H)-pyridinyl)-1-(2-pyridinyl)cyclohexanol] |  | 1.8 |  |

| SMILES | IC50 [3, 4] [nM] | Inhibition of Locomotor Activity in Mice ED50 [1] [mg/kg] | ED50 [1] [mg/kg] | further results |
| --- | --- | --- | --- | --- |
| O=C(N[C@H]1CC[C@H](N2CC=C(c3ccccc3)CC2)CC1)c1cccs1 [Example 47, trans N-[4-(3,6-Dihydro-4-phenyl-1(2H)-pyridinyl)cyclohexyl]-2-thiophenecarboxamide] | 300 |  | 0.23 | inhibition in vivo at 10 mg/kg ([2]; IP): 74% |
| O=C(N[C@H]1CC[C@H](N2CC=C(c3ccccc3)CC2)CC1)c1cccnc1 [Example 49, trans N-[4-(3,6-Dihydro-4-phenyl-1(2H)-pyridinyl)cyclohexyl]-3-pyridinecarboxamide] | 600 |  | 2.4 | inhibition in vivo at 10 mg/kg ([2]; IP): 72% |
| O=C(N[C@H]1CC[C@@H](CCN2CC=C(c3ccccc3)CC2)CC1)c1cccs1 [Example 70, cis N-[4-[2-(3,6-Dihydro-4-phenyl-1(2H)-pyridinyl)ethyl]cyclohexyl]-2-thiophenecarboxamide] | 280 |  |  |  |
| OC1(c2cccnc2)CCC(N2CC=C(c3ccccc3)CC2)CC1 (stereo not drawn) [Example 30, cis-4-(3,6-Dihydro-4-phenyl-1(2H)-pyridinyl)-1-(3-pyridinyl)cyclohexanol] | 1250 | 1.3 |  |  |
| O=C(N[C@H]1CC[C@H](N2CC=C(c3ccccc3)CC2)CC1)C1CCCCC1 [Example 50, trans N-[4-(3,6-Dihydro-4-phenyl-1(2H)-pyridinyl)cyclohexyl]cyclohexanecarboxamide] | 1600 |  | 1.1 |  |
